The structures appear in SMILES notation. Where only a bound is given, the exact number is not on record here.

Consider 13 molecules from patent publication US8796250B2, “Diaryl ureas for diseases mediated by PDGFR” (Bayer Healthcare LLC, priority 2003, dated 2014).

T2 sequence (P05622 32-1098): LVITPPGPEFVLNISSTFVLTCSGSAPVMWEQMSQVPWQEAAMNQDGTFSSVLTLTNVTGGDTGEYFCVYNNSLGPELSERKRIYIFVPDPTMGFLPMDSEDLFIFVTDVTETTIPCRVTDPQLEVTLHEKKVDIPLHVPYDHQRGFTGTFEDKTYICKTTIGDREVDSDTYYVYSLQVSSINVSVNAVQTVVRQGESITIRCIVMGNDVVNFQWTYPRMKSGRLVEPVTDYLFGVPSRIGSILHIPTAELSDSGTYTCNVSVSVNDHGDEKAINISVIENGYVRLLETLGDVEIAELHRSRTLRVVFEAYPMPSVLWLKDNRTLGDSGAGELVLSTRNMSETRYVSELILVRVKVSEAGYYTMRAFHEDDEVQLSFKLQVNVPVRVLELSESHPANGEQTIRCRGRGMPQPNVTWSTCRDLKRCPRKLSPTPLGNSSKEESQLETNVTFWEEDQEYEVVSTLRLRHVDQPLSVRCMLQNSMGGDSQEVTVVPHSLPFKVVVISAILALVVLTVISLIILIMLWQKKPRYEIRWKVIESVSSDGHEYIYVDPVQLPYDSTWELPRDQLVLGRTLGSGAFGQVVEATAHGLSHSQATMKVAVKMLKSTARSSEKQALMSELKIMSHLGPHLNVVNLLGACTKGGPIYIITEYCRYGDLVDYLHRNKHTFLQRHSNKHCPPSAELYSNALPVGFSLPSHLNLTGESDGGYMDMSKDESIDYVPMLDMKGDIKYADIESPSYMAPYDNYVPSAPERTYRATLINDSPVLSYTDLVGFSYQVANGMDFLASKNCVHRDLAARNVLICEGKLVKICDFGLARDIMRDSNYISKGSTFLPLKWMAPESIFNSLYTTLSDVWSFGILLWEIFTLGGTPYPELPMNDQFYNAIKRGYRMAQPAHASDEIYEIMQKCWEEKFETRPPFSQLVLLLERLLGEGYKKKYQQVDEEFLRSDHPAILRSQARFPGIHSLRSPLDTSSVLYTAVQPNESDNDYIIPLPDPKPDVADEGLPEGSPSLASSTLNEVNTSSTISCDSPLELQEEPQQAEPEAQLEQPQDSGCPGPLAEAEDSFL
T1 sequence (P09619 33-1106): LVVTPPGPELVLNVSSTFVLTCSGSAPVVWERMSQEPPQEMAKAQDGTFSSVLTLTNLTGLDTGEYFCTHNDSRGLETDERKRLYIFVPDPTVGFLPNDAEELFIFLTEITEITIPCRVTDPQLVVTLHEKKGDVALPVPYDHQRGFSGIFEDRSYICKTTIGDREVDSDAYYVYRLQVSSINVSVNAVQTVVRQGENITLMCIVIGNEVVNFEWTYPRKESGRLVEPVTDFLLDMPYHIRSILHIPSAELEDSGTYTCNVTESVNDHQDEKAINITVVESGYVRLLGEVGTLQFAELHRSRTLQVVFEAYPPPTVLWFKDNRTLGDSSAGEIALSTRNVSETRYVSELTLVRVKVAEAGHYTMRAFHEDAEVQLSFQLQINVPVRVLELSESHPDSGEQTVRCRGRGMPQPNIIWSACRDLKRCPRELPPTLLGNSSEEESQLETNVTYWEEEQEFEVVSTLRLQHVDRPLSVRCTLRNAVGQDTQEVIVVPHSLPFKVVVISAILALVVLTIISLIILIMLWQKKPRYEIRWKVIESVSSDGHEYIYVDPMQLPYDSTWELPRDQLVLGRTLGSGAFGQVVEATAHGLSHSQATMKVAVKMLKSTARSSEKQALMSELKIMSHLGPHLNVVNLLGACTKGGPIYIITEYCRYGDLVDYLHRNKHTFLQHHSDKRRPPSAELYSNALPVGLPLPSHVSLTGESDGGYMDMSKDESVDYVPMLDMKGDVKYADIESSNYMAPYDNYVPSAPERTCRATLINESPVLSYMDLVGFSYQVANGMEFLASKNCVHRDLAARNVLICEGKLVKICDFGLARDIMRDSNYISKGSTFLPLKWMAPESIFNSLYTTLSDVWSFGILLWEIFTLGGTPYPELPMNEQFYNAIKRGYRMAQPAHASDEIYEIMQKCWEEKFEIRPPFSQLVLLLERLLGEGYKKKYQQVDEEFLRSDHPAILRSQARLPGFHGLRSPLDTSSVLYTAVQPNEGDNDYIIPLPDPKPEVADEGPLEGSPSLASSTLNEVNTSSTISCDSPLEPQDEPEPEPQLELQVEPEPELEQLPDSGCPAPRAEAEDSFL

The first test deals with restenosis following angioplasty.
Assay: not given
The following applies: G. Bilder et al. Circulation 1999; cited from earlier work.
Consider `COc1cc2ncc(-c3ccsc3)nc2cc1OC.Cl` [RPR101511A], for which the “effect on restenosis following angioplasty” value was “prevented angiographically defined restenosis following angioplasty”.

In the next test the test system is neointimal formation.
Assay: not given
The following applies: rat model; M. Karck et al. 2002; cited from earlier work.
On to `Cc1cc2ncc(-c3ccccc3)nc2cc1C` [AG-1295], for which the “effect on neointimal formation in aortic allograft vasculopathy” value was “reduce neointimal formation”.

Another test has as its target T1, PDGFR-beta phosphorylation (Tyr-857) in Aortic SMC stimulated with PDGF BB (Homo sapiens, UniProt P09619).
T1 construct: endogenous in cells; host or cells: Aortic SMC (AoSMC), passages P3-P6
Nature of the test: pPDGFR-Beta Sandwich ELISA in AoSMC Cells. It is filed as cell-based. The settings on record: 1 hr compound, 10 ng/mL PDGF BB for 7 minutes, read-out: IC50 in bioassay of PDGFR inhibition in cells.
Experimental: 100K P3-P6 Aortic SMC were plated in each well of 12-well cluster in 1000 uL volume/well of SGM-2 using standard cell culture techniques. Next day, cells were rinsed with 1000 uL D-PBS (Gibco) once, then serum starved in 500 uL SBM (smooth muscle cell basal media) with 0.1% BSA (Sigma, Cat A9576) overnight. Compounds were diluted at a dose range from (10 uM to 1 nM in 10-fold dilution steps in DMSO. Final DMSO concentration 0.1%). Remove old media by inversion into the sink quickly then add 100 ul of each dilution to corresponding well of cells for 1 hr at 37° C. Cells were then stimulated with 10 ng/mL PDGF BB ligand for 7 minutes at 37° C. The media is decanted and 150 uL of isotonic lysis buffer with protease inhibitor tablet (Complete; EDTA-free) and 0.2 mM Na vanadate is added. Cells are lysed for 15 min at 4° C. on shaker in cold room. […] Next day, beads are rinsed in 50-volumes of PBS three times and boiled in 1×LDS sample buffer (Invitrogen) for 5 minutes. Samples were run on 3-8% gradient Tris-Acetate gels (Invitrogen) and transferred onto Nitrocellulose. […] After three washes in TBS-T, membranes were incubated in Goat anti-rabbit HRP IgG (Amersham, 1:25000 dilution) for 1 hr. Three more washes followed before addition of ECL substrate. Membranes were exposed to Hyperfilm-ECL.
Regarding `CNC(=O)c1cc(Oc2ccc(NC(=O)Nc3ccc(Cl)c(C(F)(F)F)c3)c(Cl)c2)ccn1` [N-(4-chloro-3-(trifluoromethyl)phenyl)-N′-(4-(2-(N-methylcarbamoyl)-4-pyridyloxy)-2-chlorophenyl) urea], the IC50 is less than 10 µM.

Another test concerns the target T2, mouse PDGFR (PDGFR beta) (Mus musculus, UniProt P05622).
T2 construct: made in house
In words: Murine PDGFR FRET Biochemical Assay. The settings on record: 1 nM mouse PDGFR, 20 μM ATP, TR-FRET; read-out: IC50 in biochemical assay (inhibition of PDGFR).
Text: Reaction is initiated upon addition of enzyme.
`CNC(=O)c1cc(Oc2ccc(NC(=O)Nc3ccc(Br)c(C(F)(F)F)c3)c(Cl)c2)ccn1` [N-(4-bromo-3-(trifluoromethyl)phenyl)-N′-(4-(2-(N-methylcarbamoyl)-4-pyridyloxy)-2-chlorophenyl) urea]: the half-inhibitory concentration (IC50) was less than 10 µM.
As for `CNC(=O)c1cc(Oc2ccc(NC(=O)Nc3ccc(Br)c(C(F)(F)F)c3)c(F)c2)ccn1` [N-(4-bromo-3-(trifluoromethyl)phenyl)-N′-(4-(2-(N-methylcarbamoyl)-4-pyridyloxy)-2-fluorophenyl) urea], the half-inhibitory concentration (IC50) is less than 10 µM.
On to `CNC(=O)c1cc(Oc2ccc(NC(=O)Nc3ccc(Br)c(C(F)(F)F)c3)cc2)ccn1` [N-(4-bromo-3-(trifluoromethyl)phenyl)-N′-(4-(2-(N-methylcarbamoyl)-4-pyridyloxy)phenyl) urea], for which the IC50 is less than 10 µM.
For `CNC(=O)c1cc(Oc2ccc(NC(=O)Nc3ccc(Cl)c(C(F)(F)F)c3)cc2)cc[n+]1[O-]` [N-(4-chloro-3-(trifluoromethyl)phenyl)-N′-(4-(1-hydroxy-2-(N-methylcarbamoyl)-4-pyridyloxy)phenyl) urea], the IC50 was less than 10 µM.
As for `NC(=O)c1cc(Oc2ccc(NC(=O)Nc3ccc(Cl)c(C(F)(F)F)c3)cc2)cc[n+]1[O-]` [N-(4-chloro-3-(trifluoromethyl)phenyl)-N′-(4-(1-hydroxy-2-carbamoyl-4-pyridyloxy)phenyl) urea], the IC50 is less than 10 µM.
As to `CNC(=O)c1cc(Oc2ccc(NC(=O)Nc3ccc(Cl)c(C(F)(F)F)c3)c(Cl)c2)ccn1` [N-(4-chloro-3-(trifluoromethyl)phenyl)-N′-(4-(2-(N-methylcarbamoyl)-4-pyridyloxy)-2-chlorophenyl) urea], the 50% inhibitory concentration (IC50) was less than 10 µM.
The same measure, in the same setting: for `CNC(=O)c1cc(Oc2ccc(NC(=O)Nc3ccc(Cl)c(C(F)(F)F)c3)cc2)ccn1` [N-(4-chloro-3-(trifluoromethyl)phenyl)-N′-(4-(2-(N-methylcarbamoyl)-4-pyridyloxy)phenyl) urea] the value was less than 10 µM; for `NC(=O)c1cc(Oc2ccc(NC(=O)Nc3ccc(Cl)c(C(F)(F)F)c3)cc2)ccn1` [N-(4-chloro-3-(trifluoromethyl)phenyl)-N′-(4-(2-carbamoyl-4-pyridyloxy)phenyl) urea], less than 10 µM; for `CNC(=O)c1cc(Oc2ccc(NC(=O)Nc3ccc(F)c(C(F)(F)F)c3)c(F)c2)ccn1` [N-(4-fluoro-3-(trifluoromethyl)phenyl)-N′-(4-(2-(N-methylcarbamoyl)-4-pyridyloxy)-2-fluorophenyl) urea], less than 10 µM.
`N#Cc1cc(Oc2ccc(NC(=O)Nc3ccc4c(c3)C(F)(F)OC(F)(F)O4)c(F)c2)ccn1` [N-(6-(2,2,4,4-tetrafluoro-4H-benzo[1,3]dioxinyl))-N′-(4-(2-cyano-4-pyridyloxy)-2-fluorophenyl) urea]: the IC50 is less than 10 µM.
Consider `N#Cc1cc(Oc2ccc(NC(=O)Nc3ccc4c(c3)C(F)(F)OC(F)(F)O4)cc2)ccn1` [N-(6-(2,2,4,4-tetrafluoro-4H-benzo[1,3]dioxinyl))-N′-(4-(2-cyano-4-pyridyloxy)phenyl) urea], for which the IC50 is less than 10 µM.
